We go through 7 molecules from PubChem BioAssay (NCI).

Where “and” joins values, the source holds several entries; their conditions need not be identical. Equal values may be shown once.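 Following 48 hours of exposure in 96-well plates, responses at five concentrations were used to interpolate endpoints linearly. GI50 marks 50% less growth. TGI: concentration producing complete growth inhibition.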 Where only a bound is given, the exact number is not on record here.

Among the test systems are HOP-62 NSCLC; MDA-MB-435; 786-0 renal; SK-MEL-5 melanoma; SF-295 CNS; MDA-MB-231 breast; A549 NSCLC; NCI/ADR-RES ovarian; MOLT-4 leukemia; MALME-3M melanoma.
Common to all, as to test: NCI anticancer screen, dose series, 48 h

As to `CCc1cc2c(c(OCC(F)(F)F)c(C(=O)NC3CCN(C(=O)CO)CC3)n2C)c(=O)n1CC(=O)c1ccccc1`, the GI50 with HOP-62 NSCLC was above 80.9 µM; with MDA-MB-435, above 100 µM; in the test on 786-0 renal, 33.4 µM; in the test with SK-MEL-5 melanoma, 80.2 µM; in the test with SF-295 CNS, 34.7 µM; in the test with MDA-MB-231 breast it was 54.6 µM. The GI50 is 92.2 µM in the test with A549 NSCLC, above 68.4 µM in the test on NCI/ADR-RES ovarian, 37.2 µM in the test on MOLT-4 leukemia and above 100 µM in the test on MALME-3M melanoma. Besides, the TGI in the test on HOP-62 NSCLC, in the test on MDA-MB-435, in the test with 786-0 renal, in the test with SK-MEL-5 melanoma, in the test on SF-295 CNS and in the test with MDA-MB-231 breast was above 100 µM in each case. Besides, the TGI in the test with A549 NSCLC, with NCI/ADR-RES ovarian, in the test with MOLT-4 leukemia and in the test on MALME-3M melanoma was above 100 µM in each case.

With `COc1cccc(/C=C2\CCC(CN(C)C)C2=O)c1` (centres undefined), the TGI worked out at 21 µM in the test with HOP-62 NSCLC; 7.02 µM in the test with MDA-MB-435; 8.57 µM with 786-0 renal; 24.8 µM with SK-MEL-5 melanoma; 30.8 µM in the test with SF-295 CNS; 14 µM in the test on MDA-MB-231 breast. The TGI in the test on A549 NSCLC was determined as 42.7 µM; with NCI/ADR-RES ovarian, 6.56 µM; with MOLT-4 leukemia, 5.19 µM; in the test on MALME-3M melanoma, 14 µM.

For the molecule `c1cc(OCCN2CCCC2)ccc1CNc1ccc2nc(CCC3CCCCC3)[nH]c2c1`, the GI50 was 1.71 µM in the test on HOP-62 NSCLC; 1.62 µM in the test on MDA-MB-435; 1.57 µM in the test on 786-0 renal; 1.68 µM with SK-MEL-5 melanoma; 1.97 µM in the test on SF-295 CNS; 1.61 µM in the test on MDA-MB-231 breast. For the same molecule, the GI50 with A549 NSCLC is 2.47 µM; with NCI/ADR-RES ovarian, 2.76 µM; in the test with MOLT-4 leukemia it was 1.76 µM; in the test with MALME-3M melanoma, 1.57 µM. Moreover, the TGI in the test with HOP-62 NSCLC is 3.62 µM; in the test on MDA-MB-435 it was 3.08 µM; in the test on 786-0 renal it was 3.27 µM; in the test with SK-MEL-5 melanoma, 3.1 µM; in the test on SF-295 CNS, 3.86 µM; with MDA-MB-231 breast it was 3.19 µM. Besides, the TGI in the test with A549 NSCLC worked out at 7.52 µM; with NCI/ADR-RES ovarian it was 10.7 µM; in the test on MOLT-4 leukemia it was 5.81 µM; with MALME-3M melanoma, 3.07 µM.

`CN1CCN(C)C1c1ccc(C2N(C)CCN2C)cc1`: the GI50 with HOP-62 NSCLC was 82.8 µM; in the test with MDA-MB-435 it was 34.5 µM; with 786-0 renal it was above 100 µM; in the test on SK-MEL-5 melanoma, 24.4 µM; with SF-295 CNS, above 100 µM; in the test with MDA-MB-231 breast it was 18.3 µM. In addition, the GI50 in the test with A549 NSCLC is above 100 µM; with NCI/ADR-RES ovarian it was 90.1 µM; in the test on MOLT-4 leukemia, 26.1 µM; with MALME-3M melanoma, above 100 µM. Moreover, the TGI was above 100 µM in the test with HOP-62 NSCLC; above 100 µM with MDA-MB-435; above 100 µM with 786-0 renal; 89.7 µM in the test with SK-MEL-5 melanoma; above 100 µM with SF-295 CNS; 96.1 µM with MDA-MB-231 breast. Further, the TGI is above 100 µM in the test with A549 NSCLC, above 100 µM in the test with NCI/ADR-RES ovarian, 62 µM in the test on MOLT-4 leukemia and above 100 µM in the test on MALME-3M melanoma.

For `CCCCCN(CCCCC)CCC[C@@H](C)[C@H]1CC[C@H]2[C@@H]3[C@H](OCCCN)C[C@@H]4C[C@H](OCCCN)CC[C@]4(C)[C@H]3C[C@H](OCCCN)[C@]12C`, the GI50 in the test with HOP-62 NSCLC is 5.23 µM; in the test on MDA-MB-435, 1.98 µM; in the test with 786-0 renal it was 8.26 µM; with SK-MEL-5 melanoma it was 3.85 µM; in the test on SF-295 CNS it was 3.03 µM; in the test with MDA-MB-231 breast, 4.41 µM. The GI50 in the test on A549 NSCLC is 5 µM; in the test on NCI/ADR-RES ovarian it was 12.1 µM; in the test on MOLT-4 leukemia, 3.85 µM; with MALME-3M melanoma, 4.8 µM. The TGI was 23.5 µM in the test on HOP-62 NSCLC; 4.93 µM in the test on MDA-MB-435; 24 µM in the test on 786-0 renal; 16.2 µM in the test on SK-MEL-5 melanoma; 21.8 µM in the test with SF-295 CNS; 19.7 µM in the test on MDA-MB-231 breast. Moreover, the TGI was 21.9 µM in the test on A549 NSCLC, 37.7 µM in the test with NCI/ADR-RES ovarian, 14.4 µM in the test with MOLT-4 leukemia and 17.7 µM in the test on MALME-3M melanoma.

In the case of `O=C(COc1ccccc1)NNc1ccccc1`, the GI50 in the test with HOP-62 NSCLC is 116 µM; in the test with MDA-MB-435 it was 12.2 µM and 16.1 µM; with 786-0 renal, > 68.5 µM and 66.1 µM; with SK-MEL-5 melanoma it was 46.2 µM and 104 µM; in the test with SF-295 CNS, 18.3 µM and 11.2 µM; with MDA-MB-231 breast it was 73.2 µM. The GI50 in the test on A549 NSCLC is 60.4 µM; with NCI/ADR-RES ovarian, 58.1 µM and 63.3 µM; with MOLT-4 leukemia, 25.5 µM and 16.3 µM; in the test on MALME-3M melanoma, 66.9 µM and 101 µM. The TGI with HOP-62 NSCLC, in the test with MDA-MB-435, in the test on 786-0 renal, in the test on SK-MEL-5 melanoma, in the test with SF-295 CNS and in the test with MDA-MB-231 breast was above 300 µM in each case. For the same molecule, the TGI with NCI/ADR-RES ovarian, in the test with MOLT-4 leukemia and with MALME-3M melanoma was above 300 µM in each case.

With `O=c1[nH]c(-c2ccc(Cl)c(Cl)c2)cn1-c1ccc(Cl)cc1`, the GI50 with HOP-62 NSCLC is 16.3 µM; with MDA-MB-435, 60 µM; in the test with 786-0 renal, 20.7 µM; in the test on SK-MEL-5 melanoma, 42.2 µM; with SF-295 CNS, 25 µM; with MDA-MB-231 breast, 15.2 µM. The GI50 with A549 NSCLC was 21.3 µM; with NCI/ADR-RES ovarian, 27.7 µM; in the test on MOLT-4 leukemia it was 20.8 µM; in the test on MALME-3M melanoma, 17 µM. Moreover, the TGI was 31.9 µM in the test with HOP-62 NSCLC; above 100 µM in the test with MDA-MB-435; 43.9 µM with 786-0 renal; above 100 µM in the test on SK-MEL-5 melanoma; 64 µM in the test with SF-295 CNS; 46 µM in the test on MDA-MB-231 breast. Moreover, the TGI in the test with A549 NSCLC was 48 µM; in the test with NCI/ADR-RES ovarian, above 100 µM; in the test with MOLT-4 leukemia, 38.9 µM; in the test on MALME-3M melanoma, 39.7 µM.
